Measurements reported in patent US20120101083A1, “S1P1 AGONISTS COMPRISING A BICYCLIC N-CONTAINING RING” (GLAXO GROUP LIMITED, priority 2009, published 2012).
Where a name gives a salt, the structure may show the parent alone.

Molecular target: T1, S1P1 receptor (S1P1 expressing RH7777 membranes) (Homo sapiens, UniProt P21453)
T1 construct: expressed in transfected cells; host or cells: RH7777 cells (membranes)
Assay: S1P1 GTPγS assay
Type: biochemical
Details: tested in one of the above S1P1 assays (two GTPγS formats)
Procedure: The potencies and efficacies of the compounds of this invention for the S1P1 receptor can be determined by GTPγS assay performed on the human cloned receptor as described herein.
Membrane preparation for S1P1 GTPγS assay
All steps were performed at 4° C. Cells were homogenised within a glass Waring blender for 2 bursts of 15 secs in 200 mls of buffer (50 mM HEPES, 1 mM leupeptin, 25 μg/ml bacitracin, 1 mM EDTA, 1 mM PMSF, 2 μM pepstatin A). The blender was plunged into ice for 5 mins after the first burst and 10-40 mins after the final burst to allow foam to dissipate. The material was then spun at 500 g for 20 mins and the supernatant spun for 36 mins at 48,000 g. The pellet was resuspended in the same buffer as above but without PMSF and pepstatin A. The material was then forced through a 0.6 mm needle, made up to the required volume, (usually x4 the volume of the original cell pellet), aliquoted and stored frozen at −80° C.
S1P1 expressing RH7777 membranes (1.5 μg/well) membranes (1.5 μg/well) were homogenised by passing through a 23 G needle. These were then adhered to WGA-coated SPA beads (0.125 mg/well) in assay buffer (HEPES 20 mM, MgCl2 10 mM, NaCl 100 mM and pH adjusted to 7.4 using KOH 5M). GDP 10 μM FAC and saponin 90 μg/ml FAC were also added
After 30 minutes precoupling on ice, the bead and membrane suspension was dispensed into white Greiner polypropylene LV 384-well plates (5 μl/well), containing […] of compound. 5 μl/well [^35S]-GTPγS (0.5 nM for S1P1 or 0.3 nM for S1P3 final radioligand concentration) made in assay buffer was then added to the plates. The final assay cocktail (10.1 μl) was then sealed, spun on a centrifuge, then read immediately on a Viewlux instrument.
Alternatively, after 30 minutes precoupling on ice, the bead and membrane suspension was mixed with ^35S]-GTPγS (0.5 nM final radioligand concentration) in assay buffer (HEPES 20 mM, MgCl2 10 mM, NaCl 100 mM and pH adjusted to 7.4 using KOH 5M) in a 1:1 ratio. The bead, membrane and radioligand suspension was dispensed into white Greiner polypropylene low volume 384-well plates (10 μl/well), containing 0.1 μl of a solution of test compound in 100% DMSO. The final assay cocktail (10.1 μl) was then sealed, spun on a centrifuge, then read immediately on a Viewlux instrument.

T1 sequence (P21453 whole entry): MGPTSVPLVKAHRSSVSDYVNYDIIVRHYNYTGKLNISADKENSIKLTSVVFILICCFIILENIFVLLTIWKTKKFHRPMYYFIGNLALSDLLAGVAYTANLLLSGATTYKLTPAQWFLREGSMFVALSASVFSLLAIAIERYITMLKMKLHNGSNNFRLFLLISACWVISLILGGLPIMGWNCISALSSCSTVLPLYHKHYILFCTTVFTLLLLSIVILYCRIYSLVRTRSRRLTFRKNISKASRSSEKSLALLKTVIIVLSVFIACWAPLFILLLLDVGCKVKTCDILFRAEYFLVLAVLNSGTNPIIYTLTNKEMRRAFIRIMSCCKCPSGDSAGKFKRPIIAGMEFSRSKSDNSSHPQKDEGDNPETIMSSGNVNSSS

CNC(=O)CCCN1CCc2c(ccc(-c3nnc(-c4ccc(OC(C)C)c(C#N)c4)s3)c2C)C1 [Example 14, 4-[6-(5-{3-Cyano-4-[(1-methylethyl)oxy]phenyl}-1,3,4-thiadiazol-2-yl)-5-methyl-3,4-dihydro-2(1H)-isoquinolinyl]-N-methylbutanamide] and CNC(=O)CCN1CCc2c(ccc(-c3nnc(-c4ccc(OC(C)C)c(C#N)c4)s3)c2C)C1 [Example 11, 3-[6-(5-{3-Cyano-4-[(1-methylethyl)oxy]phenyl}-1,3,4-thiadiazol-2-yl)-5-methyl-3,4-dihydro-2(1H)-isoquinolinyl]-N-methylpropanamide] cannot be ordered by EC50: no more than 1000 nM for the first, no more than 100 nM for the second.

CC(=O)NCCN1CCc2ccc(-c3noc(-c4ccc(OC(C)C)c(C#N)c4)n3)cc2CC1 [Example 101, N-{2-[7-(5-{3-cyano-4-[(1-methylethyl)oxy]phenyl}-1,2,4-oxadiazol-3-yl)-1,2,4,5-tetrahydro-3H-3-benzazepin-3-yl]ethyl}acetamide] and CNCCCC(=O)N1CCc2ccc(-c3noc(-c4ccc(OC(C)C)c(C#N)c4)n3)cc2CC1 [Example 83, 5-(3-{3-[4-(methylamino)butanoyl]-2,3,4,5-tetrahydro-1H-3-benzazepin-7-yl}-1,2,4-oxadiazol-5-yl)-2-[(1-methylethyl)oxy]benzonitrile] cannot be ordered by EC50: no more than 10 nM for the first, no more than 1000 nM for the second.

CC(C)Oc1ccc(-c2nc(-c3ccc4c(c3)CCN(C(=O)CN[C@@H](C)CO)CC4)no2)cc1C#N [Example 99, 5-[3-(3-{N-[(1S)-2-hydroxy-1-methylethyl]glycyl}-2,3,4,5-tetrahydro-1H-3-benzazepin-7-yl)-1,2,4-oxadiazol-5-yl]-2-[(1-methylethyl)oxy]benzonitrile hydrochloride] and CC(C)Oc1ccc(-c2nc(-c3ccc4c(c3)CCN(C(=O)[C@H](N)[C@@H](C)O)CC4)no2)cc1C#N [Example 58, 5-[3-(3-D-allothreonyl-2,3,4,5-tetrahydro-1H-3-benzazepin-7-yl)-1,2,4-oxadiazol-5-yl]-2-[(1-methylethyl)oxy]benzonitrile] cannot be ordered by EC50: no more than 10 nM for the first, no more than 100 nM for the second.

CC(C)Oc1ccc(-c2nc(-c3ccc4c(c3)CCN(C(=O)C(C)(C)N)CC4)no2)cc1C#N [Example 117, 5-{3-[3-(2-methylalanyl)-2,3,4,5-tetrahydro-1H-3-benzazepin-7-yl]-1,2,4-oxadiazol-5-yl}-2-[(1-methylethyl)oxy]benzonitrile] and CC(C)Oc1ccc(-c2nc(-c3ccc4c(c3)CCN(C(=O)CCCN)CC4)no2)cc1C#N [Example 63, 5-{3-[3-(4-aminobutanoyl)-2,3,4,5-tetrahydro-1H-3-benzazepin-7-yl]-1,2,4-oxadiazol-5-yl}-2-[(1-methylethyl)oxy]benzonitrile] cannot be ordered by EC50: no more than 1000 nM for the first, no more than 100 nM for the second.

Going from N#Cc1cc(-c2nc(-c3ccc4c(c3)CCN(CC(O)CO)CC4)no2)ccc1N1CC(F)C1 (stereo not shown) [Example 104, 5-{3-[3-(2,3-dihydroxypropyl)-2,3,4,5-tetrahydro-1H-3-benzazepin-7-yl]-1,2,4-oxadiazol-5-yl}-2-(3-fluoro-1-azetidinyl)benzonitrile] to CC(C)Oc1ncc(-c2nc(-c3ccc4c(c3)CCN(CC(O)CO)CC4)no2)cc1C#N (stereo in doubt) [Example 97, 5-(3-{3-[(2R)-2,3-dihydroxypropyl]-2,3,4,5-tetrahydro-1H-3-benzazepin-7-yl}-1,2,4-oxadiazol-5-yl)-2-[(1-methylethyl)oxy]-3-pyridinecarbonitrile], the EC50 falls from greater than 10000 nM to no more than 100 nM. The second is the more potent here.

CCCNc1ncc(-c2nc(-c3ccc4c(c3)CCN(C[C@H](O)CO)CC4)no2)cc1C#N [Example 143, 5-(3-{34[(2S)-2,3-dihydroxypropyl]-2,3,4,5-tetrahydro-1H-3-benzazepin-7-yl}-1,2,4-oxadiazol-5-yl)-2-(propylamino)-3-pyridinecarbonitrile hydrochloride] and CCCOc1ncc(-c2nc(-c3ccc4c(c3)CCN(C(CO)CO)CC4)no2)cc1C#N [Example 109, 5-(3-{3-[2-hydroxy-1-(hydroxymethyl)ethyl]-2,3,4,5-tetrahydro-1H-3-benzazepin-7-yl}-1,2,4-oxadiazol-5-yl)-2-(propyloxy)-3-pyridinecarbonitrile] cannot be ordered by EC50: no more than 1000 nM for the first, no more than 1000 nM for the second.

CC(C)Oc1ccc(-c2nc(-c3cccc4c3CCN(CCO)CC4)no2)cc1C#N [Example 34, 5-{3-[3-(2-Hydroxyethyl)-2,3,4,5-tetrahydro-1H-3-benzazepin-6-yl]-1,2,4-oxadiazol-5-yl}-2-[(1-methylethyl)oxy]benzonitrile] and CC(C)Oc1ccc(-c2nc(-c3cccc4c3CCN(CC(O)CO)CC4)no2)cc1C#N (stereo not shown) [Example 35, 5-{3-[3-(2,3-Dihydroxypropyl)-2,3,4,5-tetrahydro-1H-3-benzazepin-6-yl]-1,2,4-oxadiazol-5-yl}-2-[(1-methylethyl)oxy]benzonitrile hydrochloride] cannot be ordered by EC50: no more than 100 nM for the first, no more than 100 nM for the second.

COCCN1CCc2ccc(-c3nnc(-c4ccc(OC(C)C)c(C#N)c4)s3)cc2CC1 [Example 30, 2-[(1-Methylethyl)oxy]-5-(5-{3-[2-(methyloxy)ethyl]-2,3,4,5-tetrahydro-1H-3-benzazepin-7-yl}-1,3,4-thiadiazol-2-yl)benzonitrile hydrochloride] and CC(C)Oc1ccc(-c2nnc(-c3ccc4c(c3)CCN(CCO)CC4)s2)cc1C#N [Example 28, 5-{5-[3-(2-Hydroxyethyl)-2,3,4,5-tetrahydro-1H-3-benzazepin-7-yl]-1,3,4-thiadiazol-2-yl}-2-[(1-methylethyl)oxy]benzonitrile hydrochloride] cannot be ordered by EC50: no more than 1000 nM for the first, no more than 1000 nM for the second.

CCOc1ccc(-c2nc(-c3ccc4c(c3)CCN(C(=O)CN)CC4)no2)cc1C#N [Example 61, 2-(ethyloxy)-5-[3-(3-glycyl-2,3,4,5-tetrahydro-1H-3-benzazepin-7-yl)-1,2,4-oxadiazol-5-yl]benzonitrile] and CCCNc1ccc(-c2nc(-c3ccc4c(c3)CCN(C(=O)CN)CC4)no2)cc1C#N [Example 53, 5-[3-(3-glycyl-2,3,4,5-tetrahydro-1H-3-benzazepin-7-yl)-1,2,4-oxadiazol-5-yl]-2-(propylamino)benzonitrile] cannot be ordered by EC50: no more than 100 nM for the first, no more than 100 nM for the second.

Cc1c(-c2noc(-c3ccc(OC(C)C)c(C#N)c3)n2)ccc2c1CCN(CC(=O)NC[C@H](C)O)C2 [Example 121, 2-[6-(5-{3-cyano-4-[(1-methylethyl)oxy]phenyl}-1,2,4-oxadiazol-3-yl)-5-methyl-3,4-dihydro-2(1H)-isoquinolinyl]-N-[(2S)-2-hydroxypropyl]acetamide hydrochloride] and Cc1c(-c2nnc(-c3ccc(OC(C)C)c(C#N)c3)s2)ccc2c1CCN(CCCC(N)=O)C2 [Example 13, 4-[6-(5-{3-Cyano-4-[(1-methylethyl)oxy]phenyl}-1,3,4-thiadiazol-2-yl)-5-methyl-3,4-dihydro-2(1H)-isoquinolinyl]butanamide] cannot be ordered by EC50: no more than 10 nM for the first, no more than 1000 nM for the second.

CCCNc1ncc(-c2nc(-c3ccc4c(c3C)CCN(C(CO)CO)CC4)no2)cc1C#N [Example 149, 5-(3-{3-[2-hydroxy-1-(hydroxymethyl)ethyl]-6-methyl-2,3,4,5-tetrahydro-1H-3-benzazepin-7-yl}-1,2,4-oxadiazol-5-yl)-2-(propylamino)-3-pyridinecarbonitrile] and COCCN1CCc2c(ccc(-c3nnc(-c4ccc(OC(C)C)c(C#N)c4)s3)c2C)C1 [Example 17, 2-[(1-Methylethyl)oxy]-5-(5-{5-methyl-2-[2-(methyloxy)ethyl]-1,2,3,4-tetrahydro-6-isoquinolinyl}-1,3,4-thiadiazol-2-yl)benzonitrile hydrochloride] cannot be ordered by EC50: no more than 1000 nM for the first, no more than 1000 nM for the second.

First: CC(C)Oc1ccc(-c2nnc(-c3ccc4c(c3)CCN(CCCO)CC4)s2)cc1C#N [Example 29, 5-{5-[3-(3-Hydroxypropyl)-2,3,4,5-tetrahydro-1H-3-benzazepin-7-yl]-1,3,4-thiadiazol-2-yl}-2-[(1-methylethyl)oxy]benzonitrile]
Second: CNC(=O)CCN1CCc2c(cccc2-c2nnc(-c3ccc(OC(C)C)c(C#N)c3)s2)C1 [Example 45, 3-[5-(5-{3-cyano-4-[(1-methylethyl)oxy]phenyl}-1,3,4-thiadiazol-2-yl)-3,4-dihydro-2(1H)-isoquinolinyl]-N-methylpropanamide]
The EC50 of the first is lower: no more than 1000 nM for the first, greater than 10000 nM for the second.

Compound CC(C)Oc1ccc(-c2nc(-c3ccc4c(c3)CCN(C(=O)CN3CCOCC3)CC4)no2)cc1C#N [Example 91, 2-[(1-methylethyl)oxy]-5-{3-[3-(4-morpholinylacetyl)-2,3,4,5-tetrahydro-1H-3-benzazepin-7-yl]-1,2,4-oxadiazol-5-yl}benzonitrile hydrochloride] has an EC50 of no more than 1000 nM.
